Source: ChEMBL document CHEMBL4765321, “Discovery of new thieno[3,2-d]pyrimidine derivatives targeting EGFR NSCLCs by the conformation constrained strategy” (Eur J Med Chem, 2020)
Activity calls are given as the source filed them. No cut-off for these calls is given here.

How the values were obtained:
L02 = test: Cytotoxicity against human L0-2 cells assessed as reduction in cell viability measured after 72 hrs by MTT assay; assay type: ADME, cell-based; conditions: L02, 72 h
PC-9 = test: Antiproliferative activity against human PC9 cells harboring EGFRdel19 mutant assessed as reduction in cell viability measured after 72 hrs by MTT assay; assay type: functional, cell-based; conditions: PC-9, 72 h
NCI-H1975 [1] = test: cells; assay type: functional, cell-based; conditions: Homo sapiens, NCI-H1975, 72 h
[2] = tested on: Epidermal growth factor receptor (Homo sapiens), P00533 [L858R,T790M]; test: Binding affinity to EGFR L858R/T790M double mutant in human H1975 cells assessed as increase in protein signal at 50 uM incubated for 4 hrs followed by heating from 40 to 64 degC for 5 mins by CETSA based western blot analysis; assay type: cell-based; conditions: NCI-H1975, time 245.0 min
[3] = target: T1, Epidermal growth factor receptor (Homo sapiens, UniProt P00533); test: Binding affinity to wild type EGFR in human A549 cells assessed as increase in protein signal at 50 uM incubated for 4 hrs followed by heating from 40 to 64 degC for 5 mins by CETSA based western blot analysis; assay type: cell-based; conditions: a549, 4.083 h, time 245 min
A549 [4] = test: Antiproliferative activity against human A549 cells harboring wild type EGFR assessed as reduction in cell viability measured after 72 hrs by MTT assay; assay type: cell-based; conditions: A549, 72 h
[5] = tested on: Epidermal growth factor receptor (Homo sapiens), P00533 [L858R,T790M]; test: Inhibition of N-terminal GST-fused human EGFR L858R/T790M double mutant cytoplasmic domain (669 to 1210 residues) expressed in baculovirus expression system using 5-FAM-EEPLYWSFPAKKK-CONH2 as substrate at 1 uM incubated for 20 mins by Mobility shift assay
[6] = target: T1, Epidermal growth factor receptor; test: Inhibition of N-terminal GST-fused human wild type EGFR cytoplasmic domain (669 to 1210 residues) expressed in baculovirus expression system using 5-FAM-EEPLYWSFPAKKK-CONH2 as substrate incubated for 20 mins by Mobility shift assay
[7] = target: Epidermal growth factor receptor (Homo sapiens, UniProt P00533, L858R/T790M); test: Inhibition of N-terminal GST-fused human EGFR L858R/T790M double mutant cytoplasmic domain (669 to 1210 residues) expressed in baculovirus expression system using 5-FAM-EEPLYWSFPAKKK-CONH2 as substrate incubated for 20 mins by Mobility shift assay
Homo sapiens = species: Homo sapiens; test: Selectivity index, ratio of IC50 for N-terminal GST-fused human wild type EGFR cytoplasmic domain (669 to 1210 residues) expressed in baculovirus expression system to IC50 for N-terminal GST-fused human EGFR L858R/T790M double mutant cytoplasmic domain (669 to 1210 residues) expressed in baculovirus expression system
A549 [8] = test: Inhibition of colony formation in human A549 cells at 0.31 to 2.5 uM measured after 10 days by crystal violet staining based ELISA; assay type: cell-based; conditions: a549, 240 h, dose 0.31-2.5 µM, time 10 day
NCI-H1975 [9] = test: Inhibition of cell migration in human H1975 cells at 0.5 to 5 uM incubated for 48 hrs by scratch wound healing assay; assay type: functional, cell-based; conditions: dose 0.5-5 µM
[10] = tested on: Epidermal growth factor receptor (Homo sapiens), P00533 [L858R,T790M]; test: Inhibition of EGFR L858R/T790M double mutant in human H1975 cells assessed as inhibition of EGF-induced ERK phosphorylation at 10 uM incubated for 2 hrs followed by EGF stimulation for 10 mins by western blot analysis; assay type: cell-based; conditions: NCI-H1975, time 130.0 min
[11] = tested on: Epidermal growth factor receptor (Homo sapiens), P00533 [L858R,T790M]; test: Inhibition of EGF-induced phosphorylation of EGFR L858R/T790M double mutant in human H1975 cells at 10 uM incubated for 2 hrs followed by EGF stimulation for 10 mins by western blot analysis; assay type: cell-based; conditions: NCI-H1975, time 130.0 min
[12] = target: T1, Epidermal growth factor receptor; test: Inhibition of EGFR phosphorylation in human A549 cells at 1 to 10 uM incubated for 2 hrs followed by EGF stimulation for 10 mins by western blot analysis; assay type: cell-based; conditions: a549, 2.167 h, dose 1-10 µM, time 130 min
[13] = tested on: Epidermal growth factor receptor (Homo sapiens), P00533 [L858R,T790M]; test: Inhibition of EGF-induced phosphorylation of EGFR L858R/T790M double mutant in human H1975 cells at 1 uM incubated for 2 hrs followed by EGF stimulation for 10 mins by western blot analysis; assay type: cell-based; conditions: NCI-H1975, time 130.0 min
[14] = tested on: Epidermal growth factor receptor (Homo sapiens), P00533 [L858R,T790M]; test: Inhibition of EGFR L858R/T790M double mutant in human H1975 cells assessed as inhibition of EGF-induced ERK phosphorylation at 1 uM incubated for 2 hrs followed by EGF stimulation for 10 mins by western blot analysis; assay type: cell-based; conditions: NCI-H1975, time 130.0 min
[15] = tested on: Epidermal growth factor receptor (Homo sapiens), P00533 [L858R,T790M]; test: Inhibition of EGF-induced phosphorylation of EGFR L858R/T790M double mutant in human H1975 cells at 3 uM incubated for 2 hrs followed by EGF stimulation for 10 mins by western blot analysis; assay type: cell-based; conditions: NCI-H1975, time 130.0 min
NCI-H1975 [16] = test: Inhibition of colony formation in human H1975 cells measured after 10 days by crystal violet staining based ELISA; assay type: functional, cell-based; conditions: dose 0.31-2.5 µM, time 10.0 day
[17] = target: T1, Epidermal growth factor receptor; test: Inhibition of EGFR in human A549 cells assessed as inhibition of ERK phosphorylation at 1 to 10 uM incubated for 2 hrs followed by EGF stimulation for 10 mins by western blot analysis; assay type: cell-based; conditions: a549, 2.167 h, dose 1-10 µM, time 130 min
[18] = tested on: Epidermal growth factor receptor (Homo sapiens), P00533 [L858R,T790M]; test: Inhibition of EGFR L858R/T790M double mutant in human H1975 cells assessed as inhibition of EGF-induced ERK phosphorylation incubated for 2 hrs followed by EGF stimulation for 10 mins by western blot analysis; assay type: cell-based; conditions: NCI-H1975, dose 1-10 µM, time 130.0 min
[19] = tested on: Epidermal growth factor receptor (Homo sapiens), P00533 [L858R,T790M]; test: Inhibition of EGF-induced phosphorylation of EGFR L858R/T790M double mutant in human H1975 cells incubated for 2 hrs followed by EGF stimulation for 10 mins by western blot analysis; assay type: cell-based; conditions: NCI-H1975, dose 1-10 µM, time 130.0 min
[20] = tested on: Epidermal growth factor receptor (Homo sapiens), P00533 [L858R,T790M]; test: Inhibition of EGFR L858R/T790M double mutant in human H1975 cells assessed as inhibition of EGF-induced ERK phosphorylation at 3 uM incubated for 2 hrs followed by EGF stimulation for 10 mins by western blot analysis; assay type: cell-based; conditions: NCI-H1975, time 130.0 min
A549 [21] = test: Inhibition of cell migration in human A549 cells at 5 uM incubated for 48 hrs by scratch wound healing assay; assay type: cell-based; conditions: a549, 48 h

SMILES	IC50 (L02) [µM]	IC50 (PC-9) [µM]	IC50 (NCI-H1975 [1]) [µM]	IC50 (A549 [4]) [µM]	inhibition [5]	IC50 [6] [µM]	IC50 [7] [µM]	Ratio IC50 (Homo sapiens)	other results
C#Cc1cccc(Nc2ncnc3cc(OCCOC)c(OCCOC)cc23)c1 [ERLOTINIB]	7.25	> 50	> 20	–	–	–	–	–	–
O=c1ccc2ccc(Oc3nc(Nc4ccc(N5CCC(N6CCCCC6)CC5)c(F)c4)nc4ccsc34)cc2[nH]1	5.6	16.7	10.9	10.4	87%	12.4	0.11	113	Activity [2]: Active; Activity [3]: Not Active
CN1CCN(Cc2ccc(Nc3nc(Oc4ccc5ccc(=O)[nH]c5c4)c4sccc4n3)cc2)CC1	7.99	19.3	10.8	8.08	83%	> 10	0.2	> 50	–
O=c1ccc2ccc(Oc3nc(Nc4ccc(F)cc4)nc4ccsc34)cc2[nH]1	–	–	–	–	8%	> 10	> 1	–	–
CN1CCN(c2ccc(Nc3nc(Oc4ccc5ccc(=O)[nH]c5c4)c4sccc4n3)cc2F)CC1	8.37	> 50	14.5	> 20	82%	> 10	–	–	–
O=c1ccc2ccc(Oc3nc(Nc4ccc(N5CCS(=O)(=O)CC5)cc4)nc4ccsc34)cc2[nH]1	–	–	–	–	64%	> 10	–	–	–
COc1cccc(Nc2nc(Oc3ccc4ccc(=O)[nH]c4c3)c3sccc3n2)c1	–	–	–	–	22%	> 10	> 1	–	–
O=c1ccc2ccc(Oc3nc(Nc4ccc(N5CCC(N6CCCCC6)CC5)cc4)nc4ccsc34)cc2[nH]1	–	–	–	–	83%	> 10	–	–	–
CN1CCN(c2nc(Oc3ccc4ccc(=O)[nH]c4c3)c3sccc3n2)CC1	–	–	–	–	inactive	–	> 1	–	–
CCN1CCN(c2ccc(Nc3nc(Oc4ccc5ccc(=O)[nH]c5c4)c4sccc4n3)c(OC)c2)CC1	4.4	24.8	10.1	> 20	75%	> 10	0.33	> 30	–
C=CC(=O)Nc1cccc(Oc2nc(Nc3ccc(N4CCN(C)CC4)cc3)nc3ccsc23)c1 [OLMUTINIB]	0.026	16.5	9.61	–	–	–	–	–	–
CN1CCN(c2ccc(Nc3nc(Oc4ccc5ccc(=O)[nH]c5c4)c4sccc4n3)nc2)CC1	> 20	–	–	> 20	32%	> 10	> 1	–	–
CCN1CCN(Cc2ccc(Nc3nc(Oc4ccc5ccc(=O)[nH]c5c4)c4sccc4n3)cc2)CC1	5.23	17.5	10.1	5.34	81%	> 10	0.24	> 42	–
CN1CCN(c2ccc(Nc3nc(Oc4ccc5ccc(=O)[nH]c5c4)c4sccc4n3)cc2)CC1	> 50	5.78	4.15	3.46	82%	> 10	0.25	> 40	–
CCN1CCN(c2nc(Oc3ccc4ccc(=O)[nH]c4c3)c3sccc3n2)CC1	> 20	–	–	–	inactive	> 10	> 1	–	–
O=c1ccc2ccc(Oc3nc(Nc4ccc(N5CCOCC5)c(F)c4)nc4ccsc34)cc2[nH]1	–	–	–	–	39%	> 10	> 1	–	–
O=c1ccc2ccc(Oc3nc(Nc4ccc(CN5CCOCC5)cc4)nc4ccsc34)cc2[nH]1	–	–	–	–	60%	> 10	–	–	–
COc1cc(N2CCN(C)CC2)ccc1Nc1nc(Oc2ccc3ccc(=O)[nH]c3c2)c2sccc2n1	6.76	22.1	6.95	> 20	74%	> 10	0.33	> 30	–
CN(C)CCNc1ccc(Nc2nc(Oc3ccc4ccc(=O)[nH]c4c3)c3sccc3n2)cc1F	3.2	16	10.8	2.92	81%	14	0.23	61	Activity (A549 [8]): Toxic; inhibition (NCI-H1975 [9]): Active; inhibition [10]: 66%; Activity [2]: Active; Activity [3]: Not Active; inhibition [11]: 89%; inhibition (INH) [12]: Not Active; inhibition [13]: 34%; inhibition [14]: 5%; inhibition [15]: 43%; inhibition (NCI-H1975 [16]): Dose-dependent effect; inhibition (INH) [17]: Not Active; inhibition [18]: Dose-dependent effect; inhibition [19]: Dose-dependent effect; inhibition [20]: 53%; Activity (A549 [21]): Non-Toxic
O=c1ccc2ccc(Oc3nc(Nc4ccc(N5CCOCC5)cc4)nc4ccsc34)cc2[nH]1	12.5	–	–	–	56%	> 10	–	–	–
